Source: EPA's ToxRefDB 2

Tests used:
rat [1] = settings: Fertility (Segment I), Oral, Gavage/Intubation, dose end: 1 generation, group: parental
rabbit = settings: Prenatal developmental toxicity study; Oral; Gavage/Intubation; dose end: 19 GD; group: maternal; systemic / in life observation / clinical signs / abnormal feces + systemic / in life observation / clinical signs / red or crusty deposits …
rat [2] = settings: Sub-acute repeat dose toxicity; Oral; Gavage/Intubation; dose end: 14 day; group: systemic; systemic / in life observation / clinical signs / ataxia + systemic / in life observation / clinical signs / urine staining - perineum + …
primate = settings: Subchronic oral toxicity in nonrodent, Gavage/Intubation, dose end: 91 day, group: systemic, systemic / in life observation / body weight / body weight + systemic / in life observation / clinical signs / [other] + systemic / in life …
rat [3] = settings: Sub-acute repeat dose toxicity; wistar; Oral; Gavage/Intubation; dose end: 7 day; group: systemic; systemic / clinical chemistry / [other] / [other] + systemic / pathology microscopic / blood / vasculitis
mouse [4] = settings: Carcinogenicity, b6c3f1, Oral, Gavage/Intubation, dose end: 102 week, group: systemic
rat [5] = settings: Subchronic oral toxicity in rodents, fischer, Gavage/Intubation, dose end: 13 week, group: systemic
mouse [6] = settings: Subchronic oral toxicity in rodents, b6c3f1, Gavage/Intubation, dose end: 13 week, group: systemic
rat [7] = settings: Carcinogenicity, fischer, Oral, Gavage/Intubation, dose end: 102 week, group: systemic
rat [8] = settings: Sub-acute repeat dose toxicity; Oral; Gavage/Intubation; dose end: 14 day; group: systemic; systemic / in life observation / clinical signs / convulsions + systemic / in life observation / clinical signs / reduced activity + …
dog = settings: Sub-acute repeat dose toxicity, beagle, Oral, Gavage/Intubation, dose end: 14 day, group: systemic
rat [9] = settings: Sub-acute repeat dose toxicity, Oral, Gavage/Intubation, dose end: 7 day, group: systemic
rat [10] = settings: Sub-acute repeat dose toxicity, sprague dawley, Oral, Gavage/Intubation, dose end: 30 day, group: systemic
rat [11] = settings: Sub-acute repeat dose toxicity, sprague dawley, Oral, Gavage/Intubation, dose end: 14 day, group: systemic
[12] = systemic / in life observation / clinical signs / abnormal feces + systemic / in life observation / clinical signs / convulsions + systemic…
[13] = systemic / in life observation / clinical signs / convulsions + systemic / in life observation / clinical signs / salivation
[14] = systemic / pathology microscopic / kidney / cytomegaly + systemic / pathology microscopic / thyroid gland / hyperplasia
[15] = systemic / pathology microscopic / kidney / cytomegaly + systemic / pathology microscopic / thyroid gland / hyperplasia + systemic / …
[16] = systemic / in life observation / body weight / body weight + systemic / in life observation / mortality / mortality + systemic / pathology …
[17] = systemic / in life observation / body weight / body weight + systemic / pathology microscopic / liver / granuloma + systemic / pathology …
[18] = systemic / pathology microscopic / intestine large / adenocarcinoma + systemic / pathology microscopic / intestine large / polyp adenomatous…
[19] = systemic / pathology microscopic / kidney / cytomegaly + systemic / pathology microscopic / liver / necrosis
[20] = systemic / in life observation / clinical signs / abnormal feces + systemic / in life observation / clinical signs / arrhythmia
[21] = systemic / in life observation / clinical signs / abnormal feces + systemic / in life observation / clinical signs / arrhythmia + systemic…
[22] = systemic / clinical chemistry / cholesterol / cholesterol + systemic / clinical chemistry / gamma glutamyl transferase (ggt) / gamma …
[23] = systemic / clinical chemistry / aspartate aminotransferase (ast/sgot) / aspartate aminotransferase (ast/sgot) + systemic / clinical …
[24] = systemic / clinical chemistry / [other] / [other] + systemic / in life observation / body weight / body weight gain + systemic / in life …
[25] = systemic / pathology microscopic / liver / fatty change + systemic / pathology microscopic / liver / hypertrophy

For `Cc1cc2c3c(c1)C(c1ccccc1)=N[C@@H](NC(=O)c1ccncc1)C(=O)N3CC2` [CI-1018], the LOAEL (rat [1]; [12]) was over 300 mg/kg/day, the NOAEL (rat [1]; [12]) was at least 300 mg/kg/day and the LEL (rat [1]; [13]) was 30 mg/kg/day. It also gave an NEL (rat [1]; [13]) of under 30 mg/kg/day, an LOAEL (rabbit) of over 100 mg/kg/day and an NEL (rabbit) of 10 mg/kg/day. The NOAEL (rabbit) was at least 100 mg/kg/day, the LEL (rat [2]) was 1000 mg/kg/day and the LOAEL (rat [2]) was over 1000 mg/kg/day. It also gave an NEL (rat [2]) of 300 mg/kg/day, an NOAEL (rat [2]) of at least 1000 mg/kg/day and an LEL (primate) of 740 mg/kg/day. The LOAEL (primate) was over 740 mg/kg/day, the NEL (primate) was under 740 mg/kg/day and the NOAEL (primate) was at least 740 mg/kg/day. The LEL (rat [3]) was 375 mg/kg/day, the LOAEL (rat [3]) was over 750 mg/kg/day and the NEL (rat [3]) was 75 mg/kg/day. It also gave an NOAEL (rat [3]) of at least 750 mg/kg/day.
In the case of `ClC(Cl)Br` [Bromodichloromethane], the LOAEL (mouse [4]; [14]) is reported as 25 mg/kg/day, the NOAEL (mouse [4]; [14]) is reported as under 25 mg/kg/day and the LEL (mouse [4]; [15]) is reported as 25 mg/kg/day. The NEL (mouse [4]; [15]) was under 25 mg/kg/day, the LEL (rat [5]; systemic / in life observation / body weight / body weight) was 150 mg/kg/day and the LOAEL (rat [5]; [16]) was over 300 mg/kg/day. The NEL (rat [5]; [16]) was 75 mg/kg/day, the NOAEL (rat [5]; [16]) was at least 300 mg/kg/day and the LEL (mouse [6]; systemic / in life observation / body weight / body weight + systemic / pathology microscopic / kidney / necrosis) was 100 mg/kg/day. For the same compound, the LOAEL (mouse [6]; [17]) was over 400 mg/kg/day, the NOAEL (mouse [6]; [17]) was at least 400 mg/kg/day and the LOAEL (rat [7]; [18]) was over 100 mg/kg/day. It also gave an NOAEL (rat [7]; [18]) of at least 100 mg/kg/day, an LEL (rat [7]; [19]) of 50 mg/kg/day and an NEL (rat [7]; [19]) of under 50 mg/kg/day.
`CC[C@H]1CC[C@H](NCc2cc3c(cc2OC)[C@H]2C[C@H]2C(=O)N3C)[C@H](c2ccccc2)N1` showed an LEL (rat [8]) of 100 mg/kg/day, an LOAEL (rat [8]) of over 100 mg/kg/day and an NOAEL (rat [8]) of at least 100 mg/kg/day. It also gave an LEL (dog; [20]) of 3 mg/kg/day, an NEL (dog; [20]) of under 3 mg/kg/day and an LOAEL (dog; [21]) of over 15 mg/kg/day. It also gave an NOAEL (dog; [21]) of at least 15 mg/kg/day, an LOAEL (rat [9]; [22]) of over 100 mg/kg/day and an NEL (rat [9]; [22]) of 3 mg/kg/day. For the same compound, the NOAEL (rat [9]; [22]) was at least 100 mg/kg/day, the LEL (rat [9]; systemic / organ weight / liver / absolute) was 30 mg/kg/day and the LOAEL (rat [10]; [23]) was over 100 mg/kg/day. For the same compound, the NEL (rat [10]; [23]) was 3 mg/kg/day, the NOAEL (rat [10]; [23]) was at least 100 mg/kg/day and the LEL (rat [10]; systemic / in life observation / clinical signs / salivation + systemic / organ weight / liver / absolute) was 30 mg/kg/day. The LOAEL (rat [11]; [24]) was over 100 mg/kg/day, the NOAEL (rat [11]; [24]) was at least 100 mg/kg/day and the LEL (rat [11]; [25]) was 6 mg/kg/day. The NEL (rat [11]; [25]) was under 6 mg/kg/day.
